Results as given in patent US20230285227A1, “INGESTIBLE CAPSULES” (Massachusetts Institute of Technology, priority 2022, published 2023).
Where “and” joins values, the source holds several entries; their conditions need not be identical. Equal values may be shown once.

Tests used:
[1] = vancomycin permeability in isolated small intestine sections of anesthetized swine, mesenteric venous blood; details: 100 mg vancomycin, capsules vs sham control pills, p<0.001
Description: In anesthetized swine, sections of the small intestine were isolated to serve as independent testing sites while controlling for animal-specific properties such as hydration status, peristaltic rate, blood pressure, and perfusion.

[2] = Franz cell vancomycin permeability, capsule vs direct dilution in donor well; details: 25 tissue samples from n=5 animals, control = direct dilution in donor well, p<0.05
Method: Both helical and smooth exteriors were assessed. […] Given inter-animal variability of tissue properties, a ratio of permeability induced by the capsule to the control condition was calculated using a matched-pair format per animal.

[3] = oral insulin delivery via capsule or endoscopic spray in the small intestine, blood glucose and insulin monitoring; type: in vivo, swine
Method: Blood glucose and insulin concentrations were monitored for a 75-minute period with the drug delivery starting at 15 minutes.

[4] = oral insulin, background; cited from earlier work
[5] = FITC-dextran uptake with capsule vs direct application
Description: To assay the capability of the capsule to assist in the delivery of larger molecules, fluorescein isothiocyanate-(FITC) dextran having various molecular weights were delivered using the capsule, at various motor frequencies, and compared to direct application (controls).

Molecule: CN[C@H](CC(C)C)C(=O)N[C@H]1C(=O)N[C@@H](CC(N)=O)C(=O)N[C@H]2C(=O)N[C@H]3C(=O)N[C@H](C(=O)N[C@H](C(=O)O)c4cc(O)cc(O)c4-c4cc3ccc4O)[C@H](O)c3ccc(c(Cl)c3)Oc3cc2cc(c3O[C@@H]2O[C@H](CO)[C@@H](O)[C@H](O)[C@H]2O[C@H]2C[C@](C)(N)[C@H](O)[C@H](C)O2)Oc2ccc(cc2Cl)[C@H]1O [vancomycin]
- tissue permeability with capsules relative to control [1]: ≥ 20 times the control
- increase of vancomycin drug permeability with capsule delivery compared to controls [2]: over 10 fold

Molecule: insulin
- variance of blood glucose from baseline ([3]; 100 units insulin by endoscopic spray in the small intestine (control), n=5): 16.6 ± 17.3 mg/dL
- average blood glucose reduction ([3]; 100 units insulin via the capsule, n=7 animals, 75-minute monitoring): 55.54 ± 16.1 mg/dL
- uptake dynamics compared to subcutaneous or IV injection ([3]; capsule delivery of insulin): more gradual uptake
- time to changes in plasma glucose levels ([3]; insulin via the capsule): ≤ 15 min
- animals with hypoglycemia (blood glucose<20 mg/dL) necessitating dextrose infusion ([3]; insulin via the capsule, ensued at 60 minutes): three and 3 out of 7
- oral bioavailability [4]: less than 2.5%

Molecule: fluorescein isothiocyanate-(FITC) dextran
- uptake increase at 40 kDa and 70 kDa ([5]; molecular weights 40 kDa and 70 kDa): greatest increases
- uptake with the capsule compared to direct application ([5]; molecular weights as high as 150 kDa, various motor frequencies): significantly increase uptake
